Reference: patent publication US20110212040A1, “STABILIZED SUNSCREEN COMPOSITIONS” (priority 2010, published 2011)
“Also recorded” adds a separate entry of the source.

Tests used:
Type in all cases: physicochemical
[1] = Stabilization of avobenzone in presence of single carotenoids; settings: for protective activity vs avobenzone degradation: lycopene 1.6 mg/mL in squalane
Method: (§1) Key elements for this test are: consistent irradiation (known and consistent light source and positioning of samples with respect to the light source); optimal exposure of the sample to UV light (thin but consistent layer sample, in a flat vessel with no high walls which could screen out UV light); consistent sampling (especially recovery of irradiated material for analysis). Under the instant method, irradiation takes place in the Innova 4340 incubator, fitted with UV tubes (UVC: Osram Puritec-HNS3OVG13-G30T8/OF; UVB: Voltarc E312/F30T8; UVA: Sylvania F30T8/350BL)—allowing for intense, known, reproducible and even irradiation (a known illuminant is the single source of light—a wide light source and the incubator's metallic walls also help achieve even illumination). Samples are exposed in Brand plastic vial caps made of polyethylene, 26 mm diameter, 5 mm wall height, 400 μL sample volume, in triplicates, generally introduced as solutions in suitable oil carriers)—enabling irradiation of a relatively even and thin layer while allowing consistent sample recovery.
(§2) Analysis of the avobenzone content of the samples was done by UV spectroscopy (absorption @ 350 nm for avobenzone; sample dilution ×400 in hexanes). As phytofluene absorbs in the UV range relevant to our measure of avobenzone, blank TCLC samples (i.e. without avobenzone) were irradiated in parallel with test samples and absorption @ 350 nm was measured before and after irradiation. This absorption was deducted from the avobenzone absorption data, producing the corrected data shown here (unless noted otherwise).
Based on the above results, degradation of avobenzone was next measured in the presence of single carotenoids, specifically: phytoene (PE), phytofluene (PF), zeta-carotene (ZC) and Lycopene (LY).
Carotenoids levels: for the purposes of these experiments, phytoene was tested at 1.3 mg/mL; phytofluene was tested at 0.3 mg/mL; zeta-carotene and lycopene were tested at 1.6 mg/mL.
Irradiation was carried out with combined UVA+UVB (4:2, 18 h) and UVA+UVB+UVC (3:2:1, 10 h).

[2] = Effect of phytoene/phytofluene levels and ratio variations on avobenzone stabilization; settings: combined UVA+UVB+UVC 10 h; low 0.3 mg/mL, high 1.3 mg/mL; listed as PE
Method: as §1, with “Samples are exposed in Brand plastic vial caps made of polyethylene, 26 mm diameter, 5 mm wall height, 400 μL sample volume, in triplicates, generally introduced as solutions in suitable oil carriers)—enabling irradiation of a relatively even and thin layer while allowing consistent sample recovery.” left out
as §2, with “This absorption was deducted from the avobenzone absorption data, producing the corrected data shown here (unless noted otherwise).” left out

[3] = UV absorbance spectra / absorption maximum; settings: FIG. 10
[4] = 3% avobenzone cream, in vitro SPF/UVA-PF and photo stability (Colipa 2009); settings: UVA dose 10 J/cm^2, Suntest
Method: Following the convincing results from the studies described above, a preliminary study with a basic cream containing 3% avobenzone labelled 703-1, to which phytoene and phytofluene (0.0075%), was added and labelled 703-2, was conducted to determine the contribution of phytofluene to sun protection and photo stability of avobenzone under UVA following the Colipa 2009 in vitro Standard Guidelines. Approximately 1.7 mg/cm^2 of each composition is applied to 5 PMMA plates (Helioplates-HD-6, Helioscreen®, Source: Labsphere, North Sutton, N.H.), respectively, and allowed to equilibrate for at least 15 minutes. Absorbance spectra from 5 locations on each plate are measured using a UV2000 Sunscreen Analyzer (Labsphere, North Sutton, N.H.). […] Plate temperatures are 25-35° C. Mean UVA protection factors at each UV dose are then computed for each test product, using Colipa UVA Protection Factor Test Method Spreadsheet, and mean absorbance spectra from 290 to 400 nm is obtained.

CC(C)=CCC/C(C)=C/C=C/C(C)=C/C=C/C(C)=C/C=C/C=C(C)/C=C/C=C(C)/C=C/C=C(\C)CCC=C(C)C [Lycopene]
protective activity vs avobenzone degradation ([1]; combined UVA+UVB 4:2, 18 h): slight protective activity | protective activity vs avobenzone degradation ([1]; combined UVA+UVB+UVC 3:2:1, 10 h): no significant activity

CC(C)=CCC/C(C)=C/CC/C(C)=C/C=C/C(C)=C/C=C/C=C(C)/C=C/C=C(\C)CC/C=C(\C)CCC=C(C)C [Zeta-carotene, zeta-carotene]
stabilizing / protective effect on avobenzone ([1]; UVA+UVB (18 h) and UVA+UVB+UVC (10 h), not distinguished, phytoene 1.3, phytofluene 0.3, zeta-carotene 1.6 mg/mL): some protective activity

CC(C)=CCC/C(C)=C/CC/C(C)=C/CC/C(C)=C/C=C/C=C(\C)CC/C=C(\C)CC/C=C(\C)CCC=C(C)C [phytoene]
protective activity vs degradation of avobenzone [2]: level-dependent; also recorded: roughly comparable activities | λmax of absorbance spectra [3]: 286 nm

CC(C)=CCC/C(C)=C/CC/C(C)=C/C=C/C(C)=C/C=C/C=C(\C)CC/C=C(\C)CC/C=C(\C)CCC=C(C)C [phytofluene]
boost to UVA-PF [4]: addition to UVA-Pf | λmax of absorbance spectra [3]: 348 nm
